Assay results: patent US20240309365A1, “MODULATING TRANSCRIPTIONAL CONDENSATES” (Whitehead Institute for Biomedical Research, priority 2020, published 2024)
Numbered stars: 1 amine (or outer) side, 2 acyl side, 3 side chain; on linkers, the order of the positions; unused ones are H or OH. Bridge positions count the residues as written; N and C are the ends. Square brackets hold non-standard residues; d marks the D form. Peptide text beside a SMILES is read from it. I, II: the chains in the order shown. Actinocin(9to1) = Cc1c2oc3c(C)ccc(C(=O)[*:1])c3nc-2c(C(=O)[*:2])c(N)c1=O; NMeV = CN[C@H](C(=O)O)C(C)C; Sar = CNCC(=O)O

B1: Trim28 enhancer RNA: enhancer RNA transcribed from the Trim28 super-enhancer, 594 nt, SEQ ID NO: 46 (nucleic acid)
chain: AAATCTTGGAGAGAGTAGGACCTGAGCTGTTTCCTATTTCTACTACTTCCATAGACATCCATGGGTCTCCTTTGGTTCTTACCTTAAACTGCAGTTCTAGAGGCTCTTCTGGGGTTGTAAACTGCCCTTCCCCAACTCAGGAGCTCCCATTCCCTCCCCTTCCTAAACTGGCCCTACTTGTTCGCTCTACTTTATCTTGCCAGGGGTTGTAACAGCCTCCAATCTGTCTTGGATCAGGAAGCAGTTTCCATGGGGTATTTTAAGTGTAAGTTCCCCGGTGAAATGGAAACAAAAAGAATAAGGTATTCTGGGGACAGTGTAGGCCCACTAGGGTGTAGCTTGTTTTGTAAACACAGGACCTGAGTTTTGGACTTTGCCCTGGATTGTACCTGTCCCAGTGGGTTACCTTAGATGACACTAGCTTCATAATGCAAGAGGAGGTTAAGATGCTGGCTAGCGTTACCCACTTTGAAGGTACTGGAAAAGGAAGACCTGATTTACCCAAAAGAGGGAGATCTCTGTGCTTCTACCGCTTTAATTTTTTTTTTCTTTTTTTAAATATTTTTGCAGGACTGGTCACTGTAACTTTTTCCC
modifications: 47
B2: ssDNA: single-stranded DNA, 117 nt, SEQ ID NO: 51, alternative polyanion (nucleic acid)
DNA: GGTTCTGCCGCAGGTGGATCCGGTATGTCCACCGCCACGACAGTCGCCCCCGCGGGGATCCCGGCGACCCCGGGCCCTGTGAACCCACCCCCCCCGGAGGTCTCCAACCCCAGCAAG
modifications: DNA, backbone and methylation of C not given here

Experiments:
[1] = test system: Med1-GFP condensates in mESCs; assay: Condensate size in Med1-GFP mESCs after transcription inhibition; type: cell-based, mouse; conditions: 30 minutes; 100 μM DRB or 1 μM Actinomycin-D; 3D super-resolution microscopy
Method: For small molecule inhibition experiments, cells were treated with 100 μM DRB (Sigma), or 1 μM Actinomycin-D (Sigma) in 2i media (detailed above) for 30 minutes, then imaged. For wash-out experiments, media was replaced with fresh 2i media and cells were allowed to recover for 1 hour, then the cells were imaged.
Cells with endogenously-tagged Med1-GFP (Sabari et al., 2018) were plated on glass-bottom dishes (Mattek) coated with poly-L-ornithine (Sigma) and laminin (ThermoFisher). Mock (DMSO) and treated cells were imaged on a LSM 880 Confocal Microscope with Airyscan to obtain super-resolution z-stacks for at least 8 different fields containing multiple cells. For quantification, a manual threshold was applied equally across all conditions to remove background, and the size of Med1-GFP puncta was quantified in 3D using the 3D object counter plugin (Fiji/ImageJ).

[2] = test system: reconstituted mammalian transcription system (Pol II, general transcription factors, Mediator, Gal4); assay: Reconstituted in vitro transcription assay (droplets and qRT-PCR output); type: biochemical; conditions: 2 mM NTPs, 200 mM NaCl, 500 nM heparin, spermine at concentrations predicted to balance charge; for partitioning of template DNA into droplets: Cy3-labeled template DNA; for droplet area: added to the transcription reaction; for transcription (levels of RNA synthesis): qRT-PCR of template-derived RNA
Method: For the size analysis of droplets formed in the reconstituted transcription assays (FIG. 3), brightfield images were subtracted by a median-filtered image (px=21), and droplets were manually segmented and their areas measured using ImageJ.
The reconstituted in vitro transcription by RNA polymerase II was performed as previously described (Flores et al., 1992; LeRoy et al., 2008, 2019; Orphanides et al., 1998) with some modifications. A 1000 bp template DNA (unlabeled or Cy-3 labeled at 3′ end) containing adenovirus major late promoter, five Gal4 binding sites, TATA-box sequence and 561 bp from eGFP sequence was used. First, pre-initiation complex was assembled at RT for 15 min by mixing the following components: 50 nM RNA polymerase II enriched for hypophosphorylated CTD, 50 nM general transcription factors (TFIIA-B-D-E-F-H), and 5.75 nM template DNA, in a buffer containing 10 mM HEPES pH 7.5, 65 mM NaCl, 6.25 mM MgCl2, and 6.25 mM Sodium butyrate. Next, 10 nM Mediator complex and 10 nM GAL4 (Gal4 DNA binding domain fused to activation domain of VP16) were added to the reaction. Last, nucleotide mix containing 0.375 mM ATP, CTP, UTP, GTP (Invitrogen), 0.01 U RNase Inhibitor (Invitrogen), 1.25% PEG-8000 were added together with one of the following: a) various amounts of purified exogenous Pou5f1 RNA (0-500 nM) b) spermine (Sigma, S4264) c) extra NTPs (Invitrogen) d) extra NaCl e) heparin (Sigma, H3393). The reaction was incubated at 30° C. for 2 hr. RNA isolation was performed using RNeasy kit (Qiagen) by including a spike-in RNA control and an RNA carrier. Purified RNAs were treated with ezDNase (Invitrogen) for 30 min at 37° C. to eliminate the template DNA. Reverse transcription was performed using Superscript IV (Invitrogen) and qPCR was performed with SYBR Green Real Time PCR master mix (Invitrogen) to quantify the template derived transcriptional output. The Ct values of the reactions were normalized to the spike-in RNA control. The concentration of template derived transcriptional output was calculated by using a standard curve of qRT-PCR Ct values generated by known amounts of serially diluted GFP RNA.
To visualize the droplets formed in the reconstituted transcription assay, using a micropipette (2-20 μL), 5 μL of the reactions were loaded onto a homemade chamber, which was prepared by attaching coverslips to a glass slide by parallel strips of double-sided tape (Sabari et al., 2018). After the droplets were settled on the glass coverslip, the images were collected by using RPI Spinning Disk confocal microscope with a 100× objective. To account for camera artifacts in the images, brightfield Images of droplets from reconstituted assays were subjected to a white tophat filter with a disk element radius of 21 using the MorphoLib plugin in ImageJ, then a Gaussian filter (sigma=1) was applied.

[3] = target: T1, MED1-IDR (Homo sapiens, UniProt Q15648); assay: In vitro droplet assay with MED1-IDR-GFP; type: biochemical; conditions: alternative polyanions instead of RNA
T1 construct: Amino acids included; 6xHIS; made in house; host or cells: LOBSTR cells (E. coli), pET plasmid, Ni-NTA purification
T1 sequence (Q15648 948-1573): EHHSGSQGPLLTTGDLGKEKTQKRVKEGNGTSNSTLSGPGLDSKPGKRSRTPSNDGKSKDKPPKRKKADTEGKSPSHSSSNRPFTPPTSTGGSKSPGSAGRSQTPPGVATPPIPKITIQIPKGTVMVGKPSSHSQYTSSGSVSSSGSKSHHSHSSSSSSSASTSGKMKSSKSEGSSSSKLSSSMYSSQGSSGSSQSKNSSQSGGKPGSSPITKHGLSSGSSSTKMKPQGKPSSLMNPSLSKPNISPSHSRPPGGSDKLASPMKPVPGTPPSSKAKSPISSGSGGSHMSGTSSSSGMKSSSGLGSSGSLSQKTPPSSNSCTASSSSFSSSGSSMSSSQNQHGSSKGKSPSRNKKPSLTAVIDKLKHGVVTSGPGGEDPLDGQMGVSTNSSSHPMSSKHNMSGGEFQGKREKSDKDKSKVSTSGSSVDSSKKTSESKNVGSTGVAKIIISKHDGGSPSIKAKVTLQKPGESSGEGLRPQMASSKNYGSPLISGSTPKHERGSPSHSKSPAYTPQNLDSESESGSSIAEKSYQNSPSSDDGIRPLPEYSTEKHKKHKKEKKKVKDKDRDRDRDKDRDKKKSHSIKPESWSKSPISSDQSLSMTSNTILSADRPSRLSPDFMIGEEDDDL
Method: Charge-balance calculations were performed (FIGS. 2, 9, 10 and 11) employing the following method. Net protein charge per molecule was calculated as Cp=#(R, K)−#(D, E) for the relevant sequence including the GFP tag. RNA charge per molecule was calculated as Cr=−(# […]), assuming an approximate charge of −1 per nucleotide (Lin et al., 2019). Next, the charge balance ratio was computed at a particular RNA and protein concentration as:
The effective concentration of MED1-IDR in the assays was 1000 nM. The results were not quantitatively affected by inclusion/exclusion of the partial charge on Histidine residues, partly due to their low frequency on the protein sequences. For Heparin, a charge of roughly −3 per monomer was employed (Lin et al., 2020) and for single-stranded DNA, a charge of −1 per nt was employed. The fit is quantified by calculating Pearson correlation coefficient (r) was calculated between the median droplet partition value at different concentrations and the relevant charge-balance ratios and reported in FIGS. 2, 9, 10, and 11. A higher correlation implies that experimental data follow a similar qualitative trend as the estimated charge-balance curves. The code for performing these calculations are available at: […]

[4] = test system: T2, Mediator complex; assay: In vitro droplet assay with purified Mediator complex; type: biochemical, human; conditions: 6-400 nM RNA added to 200 nM purified Mediator complex
T2 construct: Purification of Human Mediator Complex from HeLa Nuclear Extract; endogenous in cells; host or cells: HeLa nuclear extract, multi-step column purification
Method: HeLa nuclear protein extract (4 g) was prepared as described in (Dignam et al., 1983). Nuclear extract was dialyzed against BC100: BC buffer, pH 7.5+100 mM KCl (20 mM Tris-HCl, 20 mM B-Mercaptoethanol, 0.2 mM PMSF, 0.2 mM EDTA, 10% glycerol (v/v) and 100 mM KCl). The extract was fractionated on a phosphocellulose column (P11) with BC buffer containing 0.1, 0.3, 0.5 and 1M KCl. The Mediator complex eluted in the 0.5M KCL (BC500) fraction. This fraction was dialyzed against BC100 and loaded on a DEAE Cellulose column and sequentially fractionated with BC buffer containing 0.1, 0.3 and 0.5M KCl. […] This fraction was then directly loaded onto a DEAE-5 PW column (TSK) and eluted with a linear KCl gradient from 0.1 to 1M KCl in BC buffer. The Mediator complex eluted between 0.4 and 0.6M KCl. The fractions containing Mediator were pooled and dialyzed against BD700: BD buffer, (20 mM Hepes pH 7.5, 20 mM β-Mercaptoethanol, 0.2 mM PMSF, 0.2 mM EDTA, 10% glycerol, and 700 mM (NH4)2SO4). This fraction was then loaded onto a Phenyl-Sepharose Hydrophobic Interaction Chromatography (HIC) column and eluted with a linear reverse gradient from 0.7 to 0.025M (NH4)2SO4 in BD buffer. The Mediator complex eluted between 0.3 and 0.1M (NH4)2SO4. […]

Molecule	partitioning of template DNA into droplets [2]	droplet area [2]	transcription (levels of RNA synthesis) [2]	fit of MED1-IDR partitioning to the charge balance model [3]	further results
Cc1c2oc3c(C)ccc(C(=O)N[C@@H]4C(=O)N[C@H](C(C)C)C(=O)N5CCC[C@H]5C(=O)N(C)CC(=O)N(C)[C@@H](C(C)C)C(=O)O[C@@H]4C)c3nc-2c(C(=O)N[C@@H]2C(=O)N[C@H](C(C)C)C(=O)N3CCC[C@H]3C(=O)N(C)CC(=O)N(C)[C@@H](C(C)C)C(=O)O[C@@H]2C)c(N)c1=O [Actinomycin-D] (I: T[dV]P[Sar][NMeV] / II: T[dV]P[Sar][NMeV]; ester I:1-I:C, II:1-II:C; linker I:N-II:N via Actinocin(9to1))	–	–	–	–	increase in volume of Med1-GFP condensates [1]: ~2 fold
[Cl-].[Na+] [NaCl]	reductions	reductions	reductions	–	–
NCCCNCCCCNCCCN [spermine]	increased	increased	increased	–	–
heparin	reductions	reductions	reductions	charge balance model also held	–
B1	–	–	–	–	RNA concentration at which droplet sizes peaked [4]: 100 nM; effect on the size of Mediator/RNA droplets [4]: dose-dependent effect
B2	–	–	–	charge balance model also held	–
